Our source for the IC50 values is ChEMBL document CHEMBL4257526, “Identification of an auxiliary druggable pocket in the DNA gyrase ATPase domain using fragment probes” (Medchemcomm, 2018).

The pIC50 is the negative decadic logarithm of the IC50, by convention in mol/L. Higher therefore signals a small IC50.

pIC50: −log10 of the molar value.

For this test, the target named is DNA gyrase (Escherichia coli, UniProt P0AES4+P0AES6). Nature of the test: Inhibition of full length Escherichia coli DNA gyrase ATPase activity measured for 20 mins by lactate dehydrogenase assay. Type of test: protein-complex assay.
As for `Cc1ccc(CCC(=O)O)cc1`, the pIC50 is 3.92. `CC(C)(c1ccccc1)c1ccc(O)cc1` gave a pIC50 of 3.41. In the case of `Oc1ccc(Oc2ccc(C(F)(F)F)cc2)cc1`, the pIC50 was 3.74.

In turn, `Cc1cc(Oc2ccc(Cl)cc2Cl)ccc1O` had a pIC50 of 4.08. As for `Oc1ccc(Oc2ccc(C(F)(F)F)cc2Cl)cc1`, the figure is 4.00; as for `Oc1ccc(Oc2cccc(Cl)c2)cc1`, 3.49. `Oc1ccc(Oc2ccc(Cl)cc2)cc1` gave a negative-log IC50 (pIC50) of 3.57. `Oc1ccc(Oc2ccc(Cl)cc2Cl)cc1` had a pIC50 of 3.92. Take `Oc1ccc(Oc2cccc(C(F)(F)F)c2)cc1`: the pIC50 is 3.62.
